Assay results published in ChEMBL document CHEMBL4507291 (2021).

Columns and labels:
[1] = target: Serine/threonine-protein kinase PLK3 (Homo sapiens) (UniProt Q9H4B4); assay: PLK3 Kinase screen; details: Compound concentration 1.0 uM
[2] = target: Vasopressin V1a receptor (Homo sapiens) (UniProt P37288); details: Compound concentration 10.0 uM
[3] = target: Ribosomal protein S6 kinase beta-1 (Homo sapiens) (UniProt P23443); assay: RPS6KB1 (p70S6K) Kinase screen; details: Compound concentration 1.0 uM
[4] = target: High affinity choline transporter 1 (Homo sapiens) (UniProt Q9GZV3); assay: Transporter, Choline Eurofins-Panlabs radioligand binding assay; design: ligand concentration 0.75 nM; details: Rattus norvegicus; Compound concentration 10.0 uM
[5] = target: 3-phosphoinositide-dependent protein kinase 1 (PDPK1) (Homo sapiens) (UniProt O15530); assay: PDK1 Direct Kinase screen; details: Compound concentration 1.0 uM
[6] = target: T1, Discoidin domain-containing receptor 2 (Homo sapiens) (UniProt Q16832); assay: DDR2 Kinase screen; details: Compound concentration 1.0 uM
T1 sequence (whole entry): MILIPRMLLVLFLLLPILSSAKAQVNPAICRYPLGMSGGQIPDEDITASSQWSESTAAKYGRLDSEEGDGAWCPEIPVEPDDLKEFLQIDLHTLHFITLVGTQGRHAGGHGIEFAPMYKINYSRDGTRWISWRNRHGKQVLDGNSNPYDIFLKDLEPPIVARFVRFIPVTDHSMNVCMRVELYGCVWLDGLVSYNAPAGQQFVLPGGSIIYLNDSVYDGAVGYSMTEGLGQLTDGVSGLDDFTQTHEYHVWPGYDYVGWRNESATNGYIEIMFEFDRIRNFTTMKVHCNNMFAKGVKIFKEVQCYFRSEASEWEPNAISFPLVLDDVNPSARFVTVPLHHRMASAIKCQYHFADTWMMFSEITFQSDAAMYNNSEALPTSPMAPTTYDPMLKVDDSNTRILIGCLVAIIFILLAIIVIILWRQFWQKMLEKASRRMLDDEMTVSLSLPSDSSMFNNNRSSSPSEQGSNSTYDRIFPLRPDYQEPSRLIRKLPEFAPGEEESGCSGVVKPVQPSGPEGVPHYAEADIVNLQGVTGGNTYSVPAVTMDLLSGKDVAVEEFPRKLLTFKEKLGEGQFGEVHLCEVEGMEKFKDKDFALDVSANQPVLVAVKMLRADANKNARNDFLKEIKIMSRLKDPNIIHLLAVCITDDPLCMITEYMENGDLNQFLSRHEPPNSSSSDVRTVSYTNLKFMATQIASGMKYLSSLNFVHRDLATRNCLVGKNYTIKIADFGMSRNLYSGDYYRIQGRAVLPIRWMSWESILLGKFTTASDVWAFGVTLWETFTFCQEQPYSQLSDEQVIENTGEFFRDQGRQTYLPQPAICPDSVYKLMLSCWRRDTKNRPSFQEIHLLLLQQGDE

[7] = target: Serine/threonine-protein kinase MARK2 (Homo sapiens) (UniProt Q7KZI7); assay: MARK2 Kinase screen; details: Compound concentration 1.0 uM
[8] = target: T2, Activin receptor type-1 (Homo sapiens) (UniProt Q04771); assay: ACVR1 (ALK2) Kinase screen; details: Compound concentration 1.0 uM
T2 sequence (whole entry): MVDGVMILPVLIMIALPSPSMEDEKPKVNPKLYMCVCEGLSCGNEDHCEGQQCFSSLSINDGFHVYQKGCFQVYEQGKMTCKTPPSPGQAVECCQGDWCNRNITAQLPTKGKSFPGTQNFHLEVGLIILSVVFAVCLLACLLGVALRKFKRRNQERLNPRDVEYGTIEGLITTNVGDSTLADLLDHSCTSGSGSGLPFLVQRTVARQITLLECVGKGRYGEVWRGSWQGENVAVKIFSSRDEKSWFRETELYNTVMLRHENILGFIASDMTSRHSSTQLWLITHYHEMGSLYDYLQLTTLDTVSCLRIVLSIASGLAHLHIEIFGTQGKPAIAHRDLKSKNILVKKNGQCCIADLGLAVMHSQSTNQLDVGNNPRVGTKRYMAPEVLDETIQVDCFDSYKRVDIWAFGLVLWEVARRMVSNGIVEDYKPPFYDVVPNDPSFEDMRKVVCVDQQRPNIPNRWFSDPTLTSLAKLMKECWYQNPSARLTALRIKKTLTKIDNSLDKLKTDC

[9] = target: Tyrosine-protein kinase ABL1 (Homo sapiens) (UniProt P00519); assay: ABL1 Kinase screen; details: Compound concentration 1.0 uM
[10] = target: Homeodomain-interacting protein kinase 1 (Homo sapiens) (UniProt Q86Z02); assay: HIPK1 (Myak) Kinase screen; details: Compound concentration 1.0 uM
[11] = target: T3, TGF-beta receptor type-1 (Homo sapiens) (UniProt P36897); assay: TGFBR1 (ALK5) Kinase screen; details: Compound concentration 1.0 uM
T3 sequence (whole entry): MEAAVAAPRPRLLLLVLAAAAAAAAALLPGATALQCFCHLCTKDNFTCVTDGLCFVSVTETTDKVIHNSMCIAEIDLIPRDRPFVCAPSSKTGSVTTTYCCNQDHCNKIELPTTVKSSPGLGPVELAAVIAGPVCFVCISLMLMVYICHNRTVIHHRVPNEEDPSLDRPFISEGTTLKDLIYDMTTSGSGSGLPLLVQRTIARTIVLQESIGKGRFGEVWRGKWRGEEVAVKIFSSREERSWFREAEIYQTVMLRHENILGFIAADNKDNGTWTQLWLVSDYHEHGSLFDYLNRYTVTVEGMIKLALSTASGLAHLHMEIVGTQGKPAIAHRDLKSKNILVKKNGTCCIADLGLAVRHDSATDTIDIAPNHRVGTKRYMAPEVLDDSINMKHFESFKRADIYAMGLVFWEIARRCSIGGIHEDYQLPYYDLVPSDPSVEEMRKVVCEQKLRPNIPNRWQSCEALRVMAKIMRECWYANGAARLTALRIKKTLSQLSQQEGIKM

[12] = target: Mitogen-activated protein kinase kinase kinase 9 (Homo sapiens) (UniProt P80192); assay: MAP3K9 (MLK1) Kinase screen; details: Compound concentration 1.0 uM
Caspase-3 (Homo sapiens) = Caspase-3 (Homo sapiens) (UniProt P42574); assay: Peptidase, CASP3 (Caspase 3) Eurofins-Panlabs enzyme assay; details: Compound concentration 10.0 uM

Measured: inhibition

Chain of Serine/threonine-protein kinase PLK3 (Homo sapiens) (Q9H4B4 whole entry, looked up): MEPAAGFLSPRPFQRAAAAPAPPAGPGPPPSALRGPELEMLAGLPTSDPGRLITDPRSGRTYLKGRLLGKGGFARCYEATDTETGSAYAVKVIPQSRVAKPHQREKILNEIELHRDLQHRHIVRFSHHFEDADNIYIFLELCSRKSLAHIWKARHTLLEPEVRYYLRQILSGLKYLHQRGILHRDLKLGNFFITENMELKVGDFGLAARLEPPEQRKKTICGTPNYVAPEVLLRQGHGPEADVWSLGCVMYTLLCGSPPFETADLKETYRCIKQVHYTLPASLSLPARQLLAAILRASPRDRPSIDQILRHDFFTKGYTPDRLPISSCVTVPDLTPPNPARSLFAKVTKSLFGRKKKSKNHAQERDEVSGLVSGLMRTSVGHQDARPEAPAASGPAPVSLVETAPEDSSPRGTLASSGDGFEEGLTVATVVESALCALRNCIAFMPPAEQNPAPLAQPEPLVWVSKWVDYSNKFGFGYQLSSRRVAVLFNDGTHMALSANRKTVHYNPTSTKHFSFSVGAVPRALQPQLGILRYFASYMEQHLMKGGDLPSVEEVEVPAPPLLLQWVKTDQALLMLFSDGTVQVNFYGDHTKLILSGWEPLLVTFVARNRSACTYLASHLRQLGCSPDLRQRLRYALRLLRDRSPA
Chain of Mitogen-activated protein kinase kinase kinase 9 (Homo sapiens) (P80192 whole entry, looked up): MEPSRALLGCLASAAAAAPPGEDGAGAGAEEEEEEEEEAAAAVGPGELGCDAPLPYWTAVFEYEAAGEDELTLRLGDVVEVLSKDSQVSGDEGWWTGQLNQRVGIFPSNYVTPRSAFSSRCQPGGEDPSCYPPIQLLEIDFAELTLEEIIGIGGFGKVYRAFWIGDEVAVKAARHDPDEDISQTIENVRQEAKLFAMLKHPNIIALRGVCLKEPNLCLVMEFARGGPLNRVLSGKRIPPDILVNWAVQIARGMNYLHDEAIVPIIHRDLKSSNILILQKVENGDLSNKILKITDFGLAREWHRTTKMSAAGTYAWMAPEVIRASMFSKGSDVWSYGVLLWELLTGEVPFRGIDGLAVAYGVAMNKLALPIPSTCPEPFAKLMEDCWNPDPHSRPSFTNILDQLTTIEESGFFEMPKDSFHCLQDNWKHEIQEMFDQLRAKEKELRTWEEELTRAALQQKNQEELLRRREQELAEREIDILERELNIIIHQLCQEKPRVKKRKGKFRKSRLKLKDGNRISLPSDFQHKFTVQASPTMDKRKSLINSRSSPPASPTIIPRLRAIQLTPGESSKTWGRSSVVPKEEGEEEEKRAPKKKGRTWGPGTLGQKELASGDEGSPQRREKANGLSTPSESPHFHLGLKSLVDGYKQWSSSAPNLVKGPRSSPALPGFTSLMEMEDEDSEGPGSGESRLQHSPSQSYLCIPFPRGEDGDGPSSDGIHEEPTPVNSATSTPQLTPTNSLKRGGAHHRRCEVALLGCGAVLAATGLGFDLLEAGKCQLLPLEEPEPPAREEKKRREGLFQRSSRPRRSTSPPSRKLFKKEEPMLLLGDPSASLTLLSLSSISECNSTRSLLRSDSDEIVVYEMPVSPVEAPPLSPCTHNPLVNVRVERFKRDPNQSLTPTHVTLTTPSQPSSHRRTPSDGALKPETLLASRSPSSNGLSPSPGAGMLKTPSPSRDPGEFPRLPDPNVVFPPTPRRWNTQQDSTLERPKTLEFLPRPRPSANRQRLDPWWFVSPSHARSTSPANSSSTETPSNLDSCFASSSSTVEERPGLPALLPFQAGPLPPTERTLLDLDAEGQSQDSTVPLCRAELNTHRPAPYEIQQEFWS
Chain of Serine/threonine-protein kinase MARK2 (Homo sapiens) (Q7KZI7 whole entry): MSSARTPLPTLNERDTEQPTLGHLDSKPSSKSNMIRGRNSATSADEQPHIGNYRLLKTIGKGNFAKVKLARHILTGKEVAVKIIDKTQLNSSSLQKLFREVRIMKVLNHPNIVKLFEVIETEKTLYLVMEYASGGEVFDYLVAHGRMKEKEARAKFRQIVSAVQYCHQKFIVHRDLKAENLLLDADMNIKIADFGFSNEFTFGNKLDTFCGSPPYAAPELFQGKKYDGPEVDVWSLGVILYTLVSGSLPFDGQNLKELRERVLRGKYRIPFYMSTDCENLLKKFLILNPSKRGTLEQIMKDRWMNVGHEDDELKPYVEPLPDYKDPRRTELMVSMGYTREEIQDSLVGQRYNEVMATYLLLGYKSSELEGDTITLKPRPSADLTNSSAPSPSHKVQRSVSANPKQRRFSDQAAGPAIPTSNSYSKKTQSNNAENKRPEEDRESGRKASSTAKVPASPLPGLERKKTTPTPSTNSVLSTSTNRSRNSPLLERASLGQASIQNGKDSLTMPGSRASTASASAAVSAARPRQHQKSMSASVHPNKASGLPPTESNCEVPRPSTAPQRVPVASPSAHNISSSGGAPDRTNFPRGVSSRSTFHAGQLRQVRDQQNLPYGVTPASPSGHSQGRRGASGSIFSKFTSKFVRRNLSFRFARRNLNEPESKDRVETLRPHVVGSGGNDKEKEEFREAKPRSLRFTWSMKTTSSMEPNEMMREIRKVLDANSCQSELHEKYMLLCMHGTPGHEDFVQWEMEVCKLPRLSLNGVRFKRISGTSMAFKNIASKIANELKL
Chain of Ribosomal protein S6 kinase beta-1 (Homo sapiens) (P23443 whole entry, looked up): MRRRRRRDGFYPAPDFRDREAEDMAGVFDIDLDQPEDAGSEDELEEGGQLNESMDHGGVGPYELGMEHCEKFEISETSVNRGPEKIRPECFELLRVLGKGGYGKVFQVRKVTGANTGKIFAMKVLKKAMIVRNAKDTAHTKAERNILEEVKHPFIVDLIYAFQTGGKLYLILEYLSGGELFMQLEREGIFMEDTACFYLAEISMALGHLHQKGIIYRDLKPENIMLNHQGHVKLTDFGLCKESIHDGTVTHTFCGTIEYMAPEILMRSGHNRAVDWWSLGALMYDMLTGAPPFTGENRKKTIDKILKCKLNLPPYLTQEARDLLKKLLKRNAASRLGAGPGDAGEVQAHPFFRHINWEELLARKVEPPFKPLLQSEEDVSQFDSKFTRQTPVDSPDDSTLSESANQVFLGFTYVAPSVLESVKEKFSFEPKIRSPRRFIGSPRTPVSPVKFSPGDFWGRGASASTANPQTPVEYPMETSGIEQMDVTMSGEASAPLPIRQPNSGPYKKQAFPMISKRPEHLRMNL
Chain of 3-phosphoinositide-dependent protein kinase 1 (PDPK1) (Homo sapiens) (O15530 whole entry, looked up, the tested form may be a part): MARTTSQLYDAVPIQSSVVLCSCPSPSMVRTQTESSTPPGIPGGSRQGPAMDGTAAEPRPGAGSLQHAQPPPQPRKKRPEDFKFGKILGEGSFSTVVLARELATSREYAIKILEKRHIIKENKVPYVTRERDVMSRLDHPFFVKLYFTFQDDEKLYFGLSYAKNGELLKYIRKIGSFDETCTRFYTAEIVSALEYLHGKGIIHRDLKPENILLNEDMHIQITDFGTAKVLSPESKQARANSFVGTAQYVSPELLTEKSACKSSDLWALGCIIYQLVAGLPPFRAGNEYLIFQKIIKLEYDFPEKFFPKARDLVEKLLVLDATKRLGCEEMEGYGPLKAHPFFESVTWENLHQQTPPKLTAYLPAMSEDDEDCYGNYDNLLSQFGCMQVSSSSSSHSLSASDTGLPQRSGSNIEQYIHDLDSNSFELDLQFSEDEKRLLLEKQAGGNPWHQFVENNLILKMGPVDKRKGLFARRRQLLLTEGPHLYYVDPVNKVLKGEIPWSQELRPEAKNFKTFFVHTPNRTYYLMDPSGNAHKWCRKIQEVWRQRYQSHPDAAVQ
Chain of Tyrosine-protein kinase ABL1 (Homo sapiens) (P00519 whole entry): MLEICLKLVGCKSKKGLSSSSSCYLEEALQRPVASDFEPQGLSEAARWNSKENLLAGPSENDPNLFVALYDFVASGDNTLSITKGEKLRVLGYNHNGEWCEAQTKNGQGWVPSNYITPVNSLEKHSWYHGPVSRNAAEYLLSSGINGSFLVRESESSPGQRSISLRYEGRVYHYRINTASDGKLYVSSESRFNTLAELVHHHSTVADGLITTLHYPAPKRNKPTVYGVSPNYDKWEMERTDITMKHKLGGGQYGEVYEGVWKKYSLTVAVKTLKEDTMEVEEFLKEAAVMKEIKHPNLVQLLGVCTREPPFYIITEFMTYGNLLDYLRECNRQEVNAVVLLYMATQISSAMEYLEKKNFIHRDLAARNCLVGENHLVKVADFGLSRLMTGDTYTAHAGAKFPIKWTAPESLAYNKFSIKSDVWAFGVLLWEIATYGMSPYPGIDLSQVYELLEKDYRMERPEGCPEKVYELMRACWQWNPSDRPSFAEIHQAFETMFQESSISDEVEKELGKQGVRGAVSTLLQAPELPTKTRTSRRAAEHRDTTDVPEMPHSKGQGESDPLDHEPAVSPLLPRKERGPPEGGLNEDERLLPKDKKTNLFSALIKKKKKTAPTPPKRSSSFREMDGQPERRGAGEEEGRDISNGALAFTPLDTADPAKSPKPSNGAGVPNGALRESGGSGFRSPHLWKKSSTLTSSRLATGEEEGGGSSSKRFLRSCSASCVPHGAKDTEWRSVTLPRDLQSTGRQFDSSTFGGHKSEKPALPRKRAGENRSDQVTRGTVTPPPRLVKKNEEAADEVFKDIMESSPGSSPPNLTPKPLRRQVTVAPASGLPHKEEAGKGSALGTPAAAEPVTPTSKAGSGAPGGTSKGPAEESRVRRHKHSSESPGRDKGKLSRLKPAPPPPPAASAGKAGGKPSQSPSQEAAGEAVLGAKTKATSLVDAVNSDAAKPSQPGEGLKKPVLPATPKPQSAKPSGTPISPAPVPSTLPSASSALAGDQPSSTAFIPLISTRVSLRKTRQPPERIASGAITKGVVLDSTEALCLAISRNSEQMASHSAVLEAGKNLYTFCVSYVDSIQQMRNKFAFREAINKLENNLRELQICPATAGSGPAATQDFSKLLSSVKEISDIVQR
Chain of Caspase-3 (Homo sapiens) (P42574 29-175 limits assumed): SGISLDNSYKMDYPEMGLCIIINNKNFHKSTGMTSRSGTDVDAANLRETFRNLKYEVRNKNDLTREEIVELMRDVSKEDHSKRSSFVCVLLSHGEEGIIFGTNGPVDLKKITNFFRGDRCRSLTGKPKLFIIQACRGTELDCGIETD
Chain of Caspase-3 (Homo sapiens) (P42574 176-277 limits assumed): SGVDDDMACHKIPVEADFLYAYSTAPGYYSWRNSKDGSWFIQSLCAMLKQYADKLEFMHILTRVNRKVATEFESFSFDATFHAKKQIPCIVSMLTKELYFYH

C[C@@H]1CN(c2cc(-c3n[nH]c4ccc(OC5(C)CC5)cc34)ncn2)C[C@H](C)O1 [MLi-2]
inactive: [1] 4.9% | [2] -9% | [3] 5.26% | [4] 18% | [5] -2.36% | [6] 3.64% | [7] 7.83% | [8] 10.7% | [9] 1.09% | [10] 3.08% | [11] 0.904% | [12] 27.3% | Caspase-3 (Homo sapiens) 12%
